This is an account of results in patent publication US20180255816A1, “SWEETENERS HAVING ENHANCED ORGANOLEPTIC PROPERTIES” (CORNELL UNIVERSITY, priority 2015, published 2018).

For assay [1] the following is noted: compared with dulcoside A; cited from earlier work.
A further assay addresses T1, β-lactoglobulin (Bos taurus, UniProt P02754).
T1 sequence (P02754 17-178): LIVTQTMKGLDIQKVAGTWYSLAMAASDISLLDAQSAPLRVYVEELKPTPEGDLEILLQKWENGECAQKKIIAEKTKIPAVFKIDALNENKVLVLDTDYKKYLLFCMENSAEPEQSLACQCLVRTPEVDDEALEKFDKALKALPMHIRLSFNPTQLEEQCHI
The experiment in a line: STD NMR binding with β-lactoglobulin. The settings on record: 1 mM rebaudioside A, 20 μM β-lactoglobulin, 40° C., pH 3. The text has this: (§1) A first step is to assess binding of the protein to ligand under investigation. Saturation transfer difference (STD) NMR spectroscopy was utilized to screen ligands for binding to proteins. The method is based on the transfer of saturation from the protein to the bound ligands, which exchange into solution where they are detected as a reduction in the intensity of the free ligand signal. By subtracting the spectrum in which the protein is saturated from a spectrum without protein saturation produces a spectrum showing only the difference in which only the signals of the ligand(s) remain. This method was used to identify binding epitopes, because the ligand residues in direct contact with the protein show faster build-up of STD signals. This method involves a several-fold excess of ligand concentration over protein, allowing low […] protein concentrations to be used.
FIG. 8A is the solvent suppressed (WET) ^1H NMR spectrum of a sample containing 1 mM rebaudioside A and 20 μM β-lactoglobulin at 40° C. and pH 3. FIG. 8B is the STD spectrum of the same sample. Separate FIDs were stored with on-resonance saturation at 7.19 ppm and off-resonance saturation at −15 ppm.

The test system of the next assay is panelists. As to the kind of experiment: Paired comparison taste test of organoleptic properties by 5 panelists. The conditions noted are these: taste panel, solution in 50 mL. Type of assay: in vivo. The text has this: The following compositions were formulated and tested for their organoleptic properties through a paired comparison test by 5 panelists.
Assay [2] addresses bovine serum albumin (BSA) (Bos taurus, UniProt P02769). As to the kind of experiment: Saturation transfer difference (STD) NMR binding screen with BSA.
Description: as §1, with “used. […]” for “used.”
FIG. 2A is the pre-saturated 600 MHz ^1H NMR spectrum of a 2 mM rebaudioside A and 50 μM BSA in filtered orange juice with 10% D2O at 25° C. A STD spectrum (FIG. 2B) of 2 mM rebaudioside A and 50 μM BSA in filtered orange juice with on- and off-resonance saturation at 8.56 and 31 ppm, respectively was recorded to validate the stability of rebaudioside A—BSA complex in a natural and complex food matrix. […]

Sequence of bovine serum albumin (BSA) (P02769 25-607): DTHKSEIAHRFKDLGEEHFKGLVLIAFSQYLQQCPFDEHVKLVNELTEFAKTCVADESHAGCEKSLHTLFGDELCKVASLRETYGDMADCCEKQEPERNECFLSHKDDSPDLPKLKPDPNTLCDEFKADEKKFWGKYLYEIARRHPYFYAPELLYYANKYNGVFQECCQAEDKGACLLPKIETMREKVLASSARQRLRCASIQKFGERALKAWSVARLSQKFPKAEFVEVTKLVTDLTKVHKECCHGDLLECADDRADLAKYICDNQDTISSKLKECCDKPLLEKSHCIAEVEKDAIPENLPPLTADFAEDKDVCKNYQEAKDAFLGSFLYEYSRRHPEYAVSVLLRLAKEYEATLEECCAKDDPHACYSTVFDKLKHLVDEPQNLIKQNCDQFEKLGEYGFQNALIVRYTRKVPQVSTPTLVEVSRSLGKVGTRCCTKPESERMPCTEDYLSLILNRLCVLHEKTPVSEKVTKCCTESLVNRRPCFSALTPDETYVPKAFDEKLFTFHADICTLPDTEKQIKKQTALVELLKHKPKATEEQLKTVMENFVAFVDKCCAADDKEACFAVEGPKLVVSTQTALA

As to `C=C1C[C@@]23CC[C@H]4[C@@](C)(CCC[C@@]4(C)C(=O)O[C@@H]4O[C@H](CO)[C@@H](O)[C@H](O)[C@H]4O[C@@H]4O[C@H](CO)[C@@H](O)[C@H](O)[C@H]4O)[C@@H]2CC[C@]1(O[C@@H]1O[C@H](CO)[C@@H](O)[C@H](O[C@@H]2O[C@H](CO)[C@@H](O)[C@H](O)[C@H]2O)[C@H]1O[C@@H]1O[C@H](CO)[C@@H](O)[C@H](O)[C@H]1O)C3` [rebaudioside D], in assay [1], the “bitterness relative to dulcoside A” value is “two-thirds less bitter” and the “sweetness relative to dulcoside A” value was “around five times sweeter”.

Take rebaudioside A: the “binding to β-lactoglobulin by STD spectrum” value on β-lactoglobulin is “capable of binding to β-lactoglobulin”. Moreover, in the assay with panelists, the “Quality: bitter after taste” value is “sweetness and bitter after taste”; the “Quality: onset of sweetness” value is on record as “Slow onset of sweetness”. In addition, the “binding to BSA by STD spectrum” value in assay [2] (1 mM rebaudioside A, 20 μM BSA, D2O, pH 3.0, 40° C., saturation at 7.19 ppm) was “binds to BSA”. In addition, the “binding to BSA by STD spectrum in food matrix” value in assay [2] (2 mM rebaudioside A, 50 μM BSA, filtered orange juice with 10% D2O, 25° C.) is “specific binding between Rebaudioside A and BSA occurs”.
